Converted amounts (≈) assume the structure as drawn. Where two headings read alike, the source gives them in different places.
What was measured:
[1] = test system: K. pneumoniae NVT1001 ΔramRΔompK35/36 mutant and its revertants; assay: Etest MIC, ΔramRΔompK35/36 mutant and its revertants (Table 7); assay type: cell-based; conditions: Klebsiella pneumoniae
[2] = test system: K. pneumoniae NVT1001 strains with carbapenemase plasmids; assay: Etest MIC of β-lactams, OmpK35/36 loss, ΔramR and/or carbapenemase (Table 9); assay type: cell-based, Klebsiella pneumoniae; conditions: for MIC: Klebsiella pneumoniae
Experimental: DNA fragments of the resistance genes along with their flanking regions were amplified from clinical plasmids via PCR with specific primer pairs. The resulting PCR fragments were digested and then cloned into the plasmid pACYC177 or pACYC184. The resulting plasmids were then transformed into K. pneumoniae strain NVT1001 via electroporation. The recombinant bacteria were plated onto LB agar plates containing kanamycin (50 mg/L) or chloramphenicol (50 mg/L), and the presence of the cloned gene was confirmed via PCR and DNA sequencing.
The MICs of antibiotics were determined using the Etest (Biodisk AB, Sweden) according to the manufacturer's instructions. The MICs from the Etest, which fall between standard two-fold dilutions, were rounded up to the next highest two-fold value. The MICs of ceftazidime and cefotaxime against K. pneumoniae NVT1001 harbouring the pACYC177 plasmid with blaOXA-48 were further determined using a broth microdilution test according to the recommendations of the CLSI,^25 and the results were interpreted according to the breakpoints established by the CLSI in 2017.^25 Meanwhile, due to the lack of CLSI breakpoints in 2016 and 2017, the results for cephalothin were interpreted according to the breakpoints established by the CLSI in 2015,^26 and the results for moxifloxacin were interpreted according to the breakpoints established by the EUCAST in 2017.^27

[3] = test system: K. pneumoniae NVT1001 and its ΔompK35/36 and/or ΔramR mutants; assay: Etest MIC, OmpK35/36 loss and AcrAB-TolC overexpression (ΔramR) strains (Table 6); assay type: cell-based, Klebsiella pneumoniae; conditions: Klebsiella pneumoniae
Summary of the method: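 Ceftazidime and cefotaxime were tested by CLSI broth microdilution on the blaOXA-48 pACYC177 transformant of NVT1001, using CLSI 2017 breakpoints. Parent, porin-deleted (ΔompK35/36) and ΔramR strains were tested by Etest, with values between two-fold dilutions rounded up.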

Structure (SMILES): C[C@H]1[C@H](NC(=O)/C(=N\OC(C)(C)C(=O)O)c2csc(N)n2)C(=O)N1S(=O)(=O)O [Aztreonam]
- MIC ([1]; ΔramRΔompK35/36::ompK35/36 revertant): 0.5 µg/mL
- MIC ([1]; ΔramRΔompK35/36::ompK35 revertant): 1 µg/mL
- MIC ([1]; ΔramRΔompK35/36::ompK36 revertant): 0.5 µg/mL
- MIC ([1]; ΔramRΔompK35/36::ramR revertant): 0.5 µg/mL
- MIC ([1]; ΔramRΔompK35/36::ramR::ompK35/36 revertant): 0.03 µg/mL
- MIC ([1]; ΔramRΔompK35/36::ramR::ompK35 revertant): 0.06 µg/mL
- MIC ([1]; ΔramRΔompK35/36::ramR::ompK36 revertant): 0.25 µg/mL
- MIC ([1]; ΔramRΔompK35/36 mutant): 1 µg/mL
- susceptibility category ([2]; IMP-8, NDM-1, VIM-1 and OXA-48 strains, with or without OmpK35/36 loss and/or ΔramR): susceptible
- MIC ([2]; IMP-8 on pACYC177, WT (NVT1001), read-out: MIC): 0.06 µg/mL
- MIC ([2]; IMP-8 on pACYC177, Δ35 (ΔompK35 mutant)): 0.25 µg/mL
- MIC ([2]; IMP-8 on pACYC177, Δ35/36 (ΔompK35/36 mutant)): 0.5 µg/mL
- MIC ([2]; IMP-8 on pACYC177, Δ36 (ΔompK36 mutant)): 0.06 µg/mL
- MIC ([2]; IMP-8 on pACYC177, ΔramR mutant): 0.5 µg/mL
- MIC ([2]; IMP-8 on pACYC177, ΔramRΔ35 (ΔramRΔompK35 mutant)): 0.5 µg/mL
- MIC ([2]; IMP-8 on pACYC177, ΔramRΔ35/36 (ΔramRΔompK35/36 mutant)): 0.5 µg/mL
- MIC ([2]; IMP-8 on pACYC177, ΔramRΔ36 (ΔramRΔompK36 mutant)): 0.5 µg/mL
- MIC ([2]; KPC-2 on pACYC177, WT (NVT1001), read-out: MIC): > 256 µg/mL
- MIC ([2]; KPC-2 on pACYC177, Δ35 (ΔompK35 mutant)): > 256 µg/mL
- MIC ([2]; KPC-2 on pACYC177, Δ35/36 (ΔompK35/36 mutant)): > 256 µg/mL
- MIC ([2]; KPC-2 on pACYC177, Δ36 (ΔompK36 mutant)): 256 µg/mL
- MIC ([2]; KPC-2 on pACYC177, ΔramR mutant): > 256 µg/mL
- MIC ([2]; KPC-2 on pACYC177, ΔramRΔ35 (ΔramRΔompK35 mutant)): > 256 µg/mL
- MIC ([2]; KPC-2 on pACYC177, ΔramRΔ35/36 (ΔramRΔompK35/36 mutant)): > 256 µg/mL
- MIC ([2]; KPC-2 on pACYC177, ΔramRΔ36 (ΔramRΔompK36 mutant)): > 256 µg/mL
- MIC ([2]; KPC-3 on pACYC177, WT (NVT1001), read-out: MIC): > 256 µg/mL
- MIC ([2]; KPC-3 on pACYC177, Δ35 (ΔompK35 mutant)): > 256 µg/mL
- MIC ([2]; KPC-3 on pACYC177, Δ35/36 (ΔompK35/36 mutant)): > 256 µg/mL
- MIC ([2]; KPC-3 on pACYC177, Δ36 (ΔompK36 mutant)): > 256 µg/mL
- MIC ([2]; KPC-3 on pACYC177, ΔramR mutant): > 256 µg/mL
- MIC ([2]; KPC-3 on pACYC177, ΔramRΔ35 (ΔramRΔompK35 mutant)): > 256 µg/mL
- MIC ([2]; KPC-3 on pACYC177, ΔramRΔ35/36 (ΔramRΔompK35/36 mutant)): > 256 µg/mL
- MIC ([2]; KPC-3 on pACYC177, ΔramRΔ36 (ΔramRΔompK36 mutant)): > 256 µg/mL
- MIC ([2]; NDM-1 on pACYC177, WT (NVT1001), read-out: MIC): 0.06 µg/mL
- MIC ([2]; NDM-1 on pACYC177, Δ35 (ΔompK35 mutant)): 0.25 µg/mL
- MIC ([2]; NDM-1 on pACYC177, Δ35/36 (ΔompK35/36 mutant)): 0.5 µg/mL
- MIC ([2]; NDM-1 on pACYC177, Δ36 (ΔompK36 mutant)): 0.06 µg/mL
- MIC ([2]; NDM-1 on pACYC177, ΔramR mutant): 0.5 µg/mL
- MIC ([2]; NDM-1 on pACYC177, ΔramRΔ35 (ΔramRΔompK35 mutant)): 0.5 µg/mL
- MIC ([2]; NDM-1 on pACYC177, ΔramRΔ35/36 (ΔramRΔompK35/36 mutant)): 0.5 µg/mL
- MIC ([2]; NDM-1 on pACYC177, ΔramRΔ36 (ΔramRΔompK36 mutant)): 0.5 µg/mL
- MIC ([2]; OXA-48 on pACYC177, WT (NVT1001), read-out: MIC): 0.06 µg/mL
- MIC ([2]; OXA-48 on pACYC177, Δ35 (ΔompK35 mutant)): 0.25 µg/mL
- MIC ([2]; OXA-48 on pACYC177, Δ35/36 (ΔompK35/36 mutant)): 0.5 µg/mL
- MIC ([2]; OXA-48 on pACYC177, Δ36 (ΔompK36 mutant)): 0.125 µg/mL
- MIC ([2]; OXA-48 on pACYC177, ΔramR mutant): 0.5 µg/mL
- MIC ([2]; OXA-48 on pACYC177, ΔramRΔ35 (ΔramRΔompK35 mutant)): 0.5 µg/mL
- MIC ([2]; OXA-48 on pACYC177, ΔramRΔ35/36 (ΔramRΔompK35/36 mutant)): 0.5 µg/mL
- MIC ([2]; OXA-48 on pACYC177, ΔramRΔ36 (ΔramRΔompK36 mutant)): 0.5 µg/mL
- MIC ([2]; VIM-1 on pACYC177, WT (NVT1001), read-out: MIC): 0.06 µg/mL
- MIC ([2]; VIM-1 on pACYC177, Δ35 (ΔompK35 mutant)): 0.25 µg/mL
- MIC ([2]; VIM-1 on pACYC177, Δ35/36 (ΔompK35/36 mutant)): 0.5 µg/mL
- MIC ([2]; VIM-1 on pACYC177, Δ36 (ΔompK36 mutant)): 0.06 µg/mL
- MIC ([2]; VIM-1 on pACYC177, ΔramR mutant): 0.5 µg/mL
- MIC ([2]; VIM-1 on pACYC177, ΔramRΔ35 (ΔramRΔompK35 mutant)): 0.5 µg/mL
- MIC ([2]; VIM-1 on pACYC177, ΔramRΔ35/36 (ΔramRΔompK35/36 mutant)): 1 µg/mL
- MIC ([2]; VIM-1 on pACYC177, ΔramRΔ36 (ΔramRΔompK36 mutant)): 1 µg/mL
- MIC ([2]; no supplemental plasmid, WT (NVT1001), read-out: MIC): 0.03 µg/mL
- MIC ([2]; no supplemental plasmid, Δ35 (ΔompK35 mutant)): 0.25 µg/mL
- MIC ([2]; no supplemental plasmid, Δ35/36 (ΔompK35/36 mutant)): 0.5 µg/mL
- MIC ([2]; no supplemental plasmid, Δ36 (ΔompK36 mutant)): 0.06 µg/mL
- MIC ([2]; no supplemental plasmid, ΔramR mutant): 0.5 µg/mL
- MIC ([2]; no supplemental plasmid, ΔramRΔ35 (ΔramRΔompK35 mutant)): 0.5 µg/mL
- MIC ([2]; no supplemental plasmid, ΔramRΔ35/36 (ΔramRΔompK35/36 mutant)): 1 µg/mL
- MIC ([2]; no supplemental plasmid, ΔramRΔ36 (ΔramRΔompK36 mutant)): 1 µg/mL
- MIC ([3]; WT, NVT1001, read-out: MIC): 0.03 µg/mL (≈ 0.0689 µM)
- MIC ([3]; Δ35, ΔompK35 mutant): 0.25 µg/mL (≈ 0.574 µM)
- MIC ([3]; Δ35/36, ΔompK35/36 mutant): 0.5 µg/mL (≈ 1.15 µM)
- MIC ([3]; Δ36, ΔompK36 mutant): 0.06 µg/mL (≈ 0.138 µM)
- MIC ([3]; ΔramR mutant): 0.5 µg/mL (≈ 1.15 µM)
- MIC ([3]; ΔramRΔ35, ΔramRΔompK35 mutant): 0.5 µg/mL (≈ 1.15 µM)
- MIC ([3]; ΔramRΔ35/36, ΔramRΔompK35/36 mutant): 1 µg/mL (≈ 2.3 µM)
- MIC ([3]; ΔramRΔ36, ΔramRΔompK36 mutant): 1 µg/mL (≈ 2.3 µM)
